Reference: patent US12485116B2, “Pharmaceutical composition for preventing or treating epidemic RNA viral infectious disease” (priority 2020, dated 2025)

Legend:
[1] = test system: SARS-CoV-2; test: Antiviral efficacy by RNA copy numbers (qRT-PCR, RdRp gene), co-treatment, Vero cells
[2] = test system: SARS-CoV-2; test: Antiviral efficacy by RNA copy numbers (qRT-PCR), co-treatment, Calu-3 human lung cell line; settings: Calu-3 cells; for selectivity index, SI / IC50: 48 hours post-infection; for IC50: co-treatment
[3] = test system: Vero cells; test: Cytotoxicity, tetrazolium salts-based assay (WST-1), Vero cells; assay type: cell-based, African green monkeys (Chlorocebus sp.); settings: all conditions tested (3.13, 12.5, 50 μM)
[4] = test system: SARS-CoV-2; test: Post-infection treatment, viral plaque assay, Calu-3 cells; assay type: cell-based, SARS-CoV-2 (a Korean isolate); settings: Severe acute respiratory syndrome coronavirus 2, Calu-3, 12.5 μM, 48 hours after drug treatment
Description: In Experimental Example 6, pyronaridine tetraphosphate or artesunate was treated each in Calu-3 cells at 0, 2, 4, 6, 8, 10, 12, 24 and 36 hours after SARS-CoV-2 (a Korean isolate) inoculation, and evaluated how long hours the inhibitory effect of each drug were retained against virus infections.
Calu-3 cells and viruses were prepared in the same manner as shown in Experimental Example 5.
After dissolving pyronaridine tetraphosphate and artesunate in DMSO each, it was diluted to 12.5 μM using media. At 1 hour after the inoculation with SARS-CoV-2 (MOI=0.1), the supernatant was removed, and Calu-3 cells were washed, followed by the addition of DMEM culture media containing 2% bovine serum. The culture media containing drugs were added at 0, 2, 4, 6, 8, 10, 12, 24 and 36 hours each. At 48 hours after each drug treatment, cell supernatants were harvested and a plaque assay—in which the plaques generated by infectious virus infection were counted in Vero cells, cells used for virus amplification—was performed. The DMEM-F12 medium layer containing 2% agarose was laid on the layer of infected Vero cells, and the number of plaques was counted by using counter-staining with crystal violet, after incubation for 72 hours.

[5] = test system: Ebola virus; settings: in vitro assays; cited from earlier work
[6] = Cytotoxicity (WST-1), Calu-3 cells; settings: human
[7] = test system: Vero cells; settings: African green monkey (Chlorocebus sp.)
[8] = test system: Ebola virus; settings: Hela cells; cited from earlier work
[9] = test system: Hela cells; settings: cited from earlier work
[10] = in vitro; settings: human
[11] = test system: Ebola virus; settings: Vero cells; cited from earlier work
[12] = test system: Vero cells; settings: cited from earlier work
[13] = test system: SARS-CoV-2; test: Antiviral efficacy by immunofluorescence staining imaging, pretreatment, Vero cells; settings: 50 μM, pretreated 1 hour, 24 hours post-infection
[14] = test system: Ebola virus; settings: cited from earlier work
[15] = test system: SARS-CoV-2; test: In vivo antiviral efficacy in SARS-CoV-2-infected hamsters, lung virus titer by plaque assay; design: species or system Syrian hamsters; settings: 360 mg/kg alone, oral, once at 25 hours post-infection, 4-day post-infection; vehicle control 8.30
[16] = test system: Ebola virus; settings: guinea pig models infected with Ebola virus; cited from earlier work
[17] = added at up to 6 hours post-infection
[18] = added at up to 12 hours post-infection
[19] = added at up to 24 hours post-infection
[20] = co-treatment, Vero cells, 24 hours after infection

SMILES: CCN(CCO)CCCC(C)Nc1ccnc2cc(Cl)ccc12 (stereo not drawn) [hydroxychloroquine]
- antiviral efficacy in the monkey cell lines ([1]; monkey cell lines (Vero)): showed antiviral efficacy
- antiviral effect in the human lung cell lines ([2]; at less than 50 μM): no antiviral effect

SMILES: C[C@H]1[C@H](OC(=O)CCC(=O)O)O[C@@H]2O[C@@]3(C)CC[C@H]4[C@H](C)CC[C@@H]1[C@@]24OO3 [artesunate]
- cytotoxicity [3]: no significant cytotoxicity
- inhibition rate ([1]; 3.13 μM, 48 hours post-infection, Vero cells): 39%
- inhibition rate ([1]; 12.5 μM, 24 hours post-infection, Vero cells): 40%
- inhibition rate ([1]; 12.5 μM, 48 hours post-infection, Vero cells): 51%
- inhibition rate against virus ([1]; 50 μM, Vero cells, co-treatment): 83%
- inhibition at 12.5 µM [4, 17]: 92 to 96%
- inhibition at 12.5 µM [4, 18]: > 90%
- inhibition at 12.5 µM [4, 19]: 48%
- antiviral efficacy against Ebola virus [5]: showed an antiviral efficacy
- selectivity index, SI [2]: > 220.8
- IC50 [2]: 0.45 µM
- CC50 at 48 h [6]: > 100 µM

SMILES: COc1ccc2nc3cc(Cl)ccc3c(Nc3cc(CN4CCCC4)c(O)c(CN4CCCC4)c3)c2n1 [pyronaridine]
- cytotoxicity increased by drug pretreatment [7]: 17%
- EC50 [8]: 0.42 to 1.12 µM
- CC50 [9]: 3.1 µM
- selectivity index, SI ([1]; Vero cells, co-treatment): > 1.40
- EC50 [1, 20]: 8.27 µM
- inhibition at non-cytotoxic concentrations [1, 20]: more than 90%
- inhibition at 12.5 µM [4, 17]: > 99%
- inhibition at 12.5 µM [4, 18]: > 94%
- inhibition at 12.5 µM [4, 19]: 90%
- CC50 at 48 h [10]: > 100 µM
- antiviral activity against Ebola virus at a concentration below CC50 [11]: no antiviral activity
- CC50 [12]: 1.3 µM
- virus inhibition rate [13]: 70%
- virus titer and survival rate ([14]; Ebola virus-challenged mouse models): significantly improved
- mortality and viral infection rate ([14]; mouse models challenged with Ebola virus): significantly inhibited
- selectivity index, SI [2]: > 11.66
- IC50 [2]: 8.58 µM
- median infectious virus titer in the lung tissues [15]: 7.22 Log10 PFU

SMILES: CCN(CC)CCCC(C)Nc1ccnc2cc(Cl)ccc12 (stereo not drawn) [chloroquine]
- antiviral effect [16]: did not show antiviral effect
